We go through 16 compounds from patent US4606860A, “Rhodanines useful as a therapeutic agent for diabetic complications” (Kaken Pharmaceutical Co., Ltd., priority 1984, dated 1986).

Usually LD50 stands for the dose expected to kill half of the subjects tested. Lower therefore signals a more toxic substance.

Molecules are shown by their SMILES. Counter-ions that a name gives are not always drawn. Like-named read-outs stand apart in the source and are kept apart here.

The target of data set [1] is T1, aldose reductase (Rattus norvegicus, UniProt P07943).
T1 construct: the supernatant was used as the crude enzyme solution; from tissue; host or cells: lens of male Wistar rats (10,000 g supernatant of homogenate, crude enzyme)
The data set can be described thus: Aldose reductase inhibiting activity (crude enzyme from rat lens, NADPH absorbance at 340 nm). In kind it is biochemical, rat (Wistar strain). To be noted: DL-glyceraldehyde 10 mM, NADPH 0.104 mM, pH 6.2, Table 4, read-out: IC50 (50% inhibition concentration), aldose reductase. On the procedure: Thus, Wistar strain male rats were sacrificed by decapitation, the lenses were excised and homogenized with a 0.1 M phosphate buffer [pH 6.8; containing 1 mM of mercaptoethanol and 1 mM of nicotinamide-adenine dinucleotide phosphate (NADP)]. The homogenate was then centrifuged at 10,000 g for 15 minutes and the supernatant was used as the crude enzyme solution.
To this buffer solution, there was added 15 μl of each of solutions of each test compound in varied concentrations, followed by addition of 25 μl of the crude enzyme solution prepared in advance, to thereby initiate the reaction.

Data set [2] concerns thrombin-induced aggregation of washed rabbit platelets. The data set can be described thus: Platelet aggregation inhibiting activity (thrombin-stimulated washed rabbit platelets, aggregometer). Format: cell-based, rabbit (albino, white local breed). The conditions noted are these: for IC50: Oryctolagus cuniculus, Platelet; for platelet aggregation inhibiting activity, in words: comparison with other compounds or Dipyridamole (Persantine). On the procedure: The platelets were suspended in a 15 mM Tris-hydrochloric acid buffer in a final concentration of 6×10^8 cells/ml (Tris: tris(hydroxymethyl)aminomethane). Each test compound was added thereto and incubation was carried out at 37° C. for 2 minutes. Then, the platelets were stimulated by addition of thrombin (final concentration 0.2 unit/ml; made by Mochida Pharmaceutical Co.) and the aggregation inhibiting activity was estimated by observation of the aggregation reaction using an aggregometer (made by Briston Co.).

Data set [3] has as its system male ddY strain mice. Put plainly: Acute toxicity in mice (oral). Format: in vivo. The conditions noted are these: 2 weeks. The text has this:
(§1) The acute toxicity in mice was examined with the rhodanine derivative (I) of the present invention.

A short description of data set [4]: Acute toxicity in mice (oral). In kind it is in vivo. The conditions noted are these: mouse, in vivo, male ddY mice, 2 weeks.
From the text: as §1

[5] abbreviates: 2 min, read-out: IC50 (50 % inhibition concentration), platelet aggregation.
The mark [6] stands for this setting: washed rabbit platelets, read-out: concentration inhibiting thrombin-induced aggregation by 50%.
[7] abbreviates: 2 min, washed rabbit platelets 6×10^8 cells/ml, thrombin 0.2 unit/ml, 37° C., 2 minutes, Table 3, read-out: IC50 (50 % inhibition concentration), platelet aggregation.

In the case of `CNC=C1SC(=S)N(CC(=O)O)C1=O` [Compound No. 1, 3-Carboxymethyl-5-methylaminomethylidenerhodanine], in data set [1], the IC50 came out at 1300 nM.

Regarding `CN(C)C=C1SC(=S)N(CC(=O)O)C1=O` [Compound No. 2, 3-Carboxymethyl-5-dimethylaminomethylidenerhodanine], the IC50 in data set [1] was determined as 650 nM.

`O=C(O)CN1C(=O)C(=CNCCO)SC1=S` [Compound No. 3, Ethanolamine salt of 3-Carboxymethyl-5-hydroxyethylaminomethylidenerhodanine]: the IC50 in data set [1] is 700 nM.

`C=CCNC=C1SC(=S)N(CC(=O)O)C1=O` [Compound No. 4, 3-Carboxymethyl-5allylaminomethylidenerhodanine]: the IC50 in data set [1] was 300 nM.

Regarding `CC(C)CNC=C1SC(=S)N(CC(=O)O)C1=O` [Compound No. 5, 3-Carboxymethyl-5-isobutylaminomethylidenerhodanine], the IC50 in data set [1] was found to be 600 nM.

As to `CCCCCCNC=C1SC(=S)N(CC(=O)O)C1=O` [Compound No. 6, 3-Carboxymethyl-5-hexylaminomethylidenerhodanine], in data set [1], the IC50 is 280 nM.

`COc1cccc(NC=C2SC(=S)N(CC(=O)O)C2=O)c1` [Compound No. 7, 3-Carboxymethyl-5-m-methoxyphenylaminomethylidene-rhodanine]: the figures for the IC50 in data set [2] (setting [5]), in data set [2] (setting [6]) and in data set [1] were 310000 nM, 300000 nM and 26 nM, respectively. The “platelet aggregation inhibiting activity, in words” value in data set [2] is “almost comparable in said activity to Dipyridamole”. Besides, the “deaths noted up to a dose of 4 g/kg body weight” value (from here on “deaths noted up to a dose”) in data set [3] is “no deaths were noted”. The 50% lethal dose (LD50) at 336 h in data set [4] is more than 4000 mg/kg.

As to `COc1ccccc1NC=C1SC(=S)N(CC(=O)O)C1=O` [Compound No. 8, 3-Carboxymethyl-5-o-methoxyphenylaminomethylidenerhodanine], the IC50 in data set [2] (setting [7]) came out at 310000 nM; in data set [2] (setting [6]), 300000 nM; in data set [1], 50 nM. The “platelet aggregation inhibiting activity, in words” value in data set [2] was “almost comparable in said activity to Dipyridamole”.

Consider `O=C(O)CN1C(=O)C(=CNc2cccc(Cl)c2)SC1=S` [Compound No. 9, 3-Carboxymethyl-5-m-chlorophenylaminomethylidenerhodanine], for which the IC50 in data set [2] (setting [6]) was determined as 300000 nM; in data set [1], 23 nM. Moreover, in data set [2], the “platelet aggregation inhibiting activity, in words” value was “almost comparable in said activity to Dipyridamole”. The “deaths noted up to a dose” value in data set [3] was “no deaths were noted”. Further, the LD50 at 336 h in data set [4] was more than 4000 mg/kg.

Regarding `O=C(O)CN1C(=O)C(=CNc2ccc(Br)cc2)SC1=S` [Compound No. 10, 3-Carboxymethyl-5-p-bromophenylaminomethylidenerhodanine], the IC50 in data set [2] (setting [7]) stood at 300000 nM; in data set [2] (setting [6]), 300000 nM; in data set [1] it was 50 nM. The “platelet aggregation inhibiting activity, in words” value in data set [2] was “almost comparable in said activity to Dipyridamole”.

In the case of `Cc1cccc(NC=C2SC(=S)N(CC(=O)O)C2=O)c1` [Compound No. 11, 3-Carboxymethyl-5-m-methylphenylaminomethylidenerhodanine], the results for the IC50 in data set [2] (setting [5]), in data set [2] (setting [6]) and in data set [1] were 320000 nM, 300000 nM and 36 nM, respectively. In addition, the “platelet aggregation inhibiting activity, in words” value in data set [2] is “almost comparable in said activity to Dipyridamole”. For the same compound, the “deaths noted up to a dose” value in data set [3] is reported as “no deaths were noted”. In addition, the LD50 at 336 h in data set [4] was more than 4000 mg/kg.

Turning to `O=C(O)CN1C(=O)C(=CN2CCOCC2)SC1=S` [Compound No. 12, 3-Carboxymethyl-5-morpholinomethylidenerhodanine], the IC50 in data set [1] came to 340 nM.

In the case of `CN1CCN(C=C2SC(=S)N(CC(=O)O)C2=O)CC1` [Compound No. 13, 3-Carboxymethyl-5-N-methylpiperazinomethylidenerhodanine], in data set [1], the IC50 is 200 nM.

As for `CN1CCCN(C=C2SC(=S)N(CC(=O)O)C2=O)CC1` [Compound No. 14, 3-Carboxymethyl-5-N-methylhomopiperazinomethylidenerhodanine], the IC50 in data set [1] was found to be 1300 nM.

On to `O=C(O)CN1C(=O)C(=CNc2ccccc2-c2ccccc2)SC1=S` [Compound No. 15, 3-Carboxymethyl-5-(2-biphenylyl)aminomethylidenerhodanine], for which the IC50 in data set [2] (setting [5]) is 410000 nM; in data set [1], 150 nM. For the same compound, the “deaths noted up to a dose” value in data set [3] is “no deaths were noted”. This compound returned an LD50 at 336 h in data set [4] of more than 4000 mg/kg.

Turning to `OCCN(CCO)c1nc(N2CCCCC2)c2nc(N(CCO)CCO)nc(N3CCCCC3)c2n1` [Dipyridamole, reference compound], in data set [2] (setting [7]), the IC50 came to 200000 nM.
